In patent publication US6623933B1 (priority 1999, dated 2003):
Values joined by “and” are separate entries in the source; they are usually repeats but may differ in a detail not shown here. Equal entries are not always repeated. Structures can show the parent of a compound that is named as a salt.

What was measured:
NR1011/NR2Dwt = target: T1, NR1011/NR2Dwt (Rattus norvegicus, UniProt P35439+Q62645); assay: NR2 chimera study, Xenopus oocytes, Example 7; type: cell-based; conditions: 100 μM PS; 300 μM NMDA; 50 μM Glycine
T1 construct: expressed in transfected cells; host or cells: Xenopus oocytes
Text: (§1) The chimeric receptors were generated by first introducing a series of silent restriction sites in both the NR2B and NR2D cDNA. The chimeric cDNAs were then constructed by replacing corresponding regions of one cDNA with that of the other. The silence site mutations were generated by a method involving PCR. […] This cassette was then ligated into the cDNA cut with the same two restriction enzymes.

NR1011/NR2Bwt = target: T2, NR1011/NR2Bwt (Rattus norvegicus, UniProt P35439+Q00960); assay: NR2 chimera study, Xenopus oocytes, Example 7; type: cell-based; conditions: 100 μM PS; 300 μM NMDA; 50 μM Glycine
T2 construct: expressed in transfected cells; host or cells: Xenopus oocytes
Text: as §1

NR1100/NR2A = assay: NMDA-induced currents of NR1 splice variants, Xenopus oocytes, Example 4; type: cell-based; conditions: 100 μM PS
Protocol: Overnight cultures (500 ml) of transformed bacterial cells were prepared in order to grow sufficient quantities for maxiprep isolation of the plasmid CDNA. Maxipreps were done using a Sorvall RC-5B ultracentrifuge, Qiagen columns and cDNA was quantitated with spectrophotometry (OD260 and OD260/ OD280 ratio). The resulting plasmid cDNA was linearized by digestion with an appropriate restriction enzyme that cleaves distal to the cDNA insert (XhoI for NR2A or NotI for NR1100, NR1000, NR1111, NR1011, NR1101, NR1001). […] The samples were stored at −20° C. until use.
In vitro transcription was performed using the Ambion mMessage mMachine kit with T7 (NR1100, NR1000, NR1111, NR1011, NR1101, NR1001) RNA polymerase. The reaction was assembled on ice and allowed to incubate at 37° C. for 1-2 hr. The resulting mRNA was precipitated (reaction termination) using lithium chloride/5 mM EDTA solution and dissolved in RNase-free H2O. The concentration (OD260) and OD260/OD280 ratio (should be more than 1.5) was determined by spectrophotometer. The yield of mRNA was generally 15-30 μg. mRNA was stored at −80° C. until use.
Intracellular recording microelectrodes were fabricated from 100 μl borosilicate glass disposable micropipettes using a 2-step protocol on a standard horizontal Flaming-Brown micropipette puller.

NR1/NR2D = target: T3, NR1/NR2D (Rattus norvegicus, UniProt P35439+Q62645); assay: NMDA-induced membrane currents, Xenopus oocytes, Example 7; type: cell-based
T3 construct: expressed in transfected cells; host or cells: Xenopus oocytes injected with mRNA
Protocol: (§2) Plasmids were linearized with appropriate restriction enzyme prior to in vitro transcription using the Message Machine kit (Ambion, Inc., Austin, Tex.).
(§3) Oocytes were injected with 50 nL of RNA solutions using an electronic microinjector (Drummond Inc., Broomall, Pa.). […] The injected oocytes were used for experiments following 1-5 days of incubation in Barth's solution at 18-20° C.
(§4) The microelectrodes were fabricated with a programmed puller (Sutter Instrument Co., Calif.) from borosilicate glass capillaries and were filled with 3 M KCl solution. The resistance of filled microelectrodes was in the range of 1-3 MΩ. […] If not mentioned otherwise, during data acquisition oocytes were clamped at a holding potential of −70 mV. The membrane current was filtered at 500 Hz and sampled at 100 Hz. Drugs were applied using a gravity driven external perfusion system. The working ,volume of the recording chamber was 30 μl and the rate of the perfusion was 50 μl/sec. The drug application lasted 10 sec and was followed by a 60 sec wash. The data acquisition and external perfusion control were done using the SuperScopeII software package (GW Instruments, Mass.). […] Peak or steady-state current measurements were normalized and expressed as a fraction of the peak or steady-state control current measurements, which were performed before and after application of every single consentration of agonist or steroid. […]

[1] = target: T4, NR1011/NR2B-D chimera(IV) (Rattus norvegicus, UniProt P35439+Q62645, A747T/A861I/D811G/D828E/DEL874-885/E739D/E740D/F807L/G793D/G854A/H791Q/I800V/I813M/I830N/INS886[…]/K766R/K836Q/L790I/L804I/L808F/L850G/L858I/L870F/M815E/M890I/P736R/P799Q/Q744S/R732K/R737G/R765G/R795G/R818A/R869Q/S728A/S822T/T743L/T783S/V731G/V851A/V859T/V866F/W862C/Y733F); assay: NR2 chimera study, Xenopus oocytes, Example 7; type: cell-based; conditions: 100 μM PS; 300 μM NMDA; 50 μM Glycine
T4 construct: expressed in transfected cells; host or cells: Xenopus oocytes
Text: In the fourth chimera receptor, NR2B-DChimera (IV), the residues 727 to 892 were replaced on NR2D with residues 703 to 870 of NR2B, which contains the second extracellular domain, the fourth hydrophobic transmembrane domain and 31 residues from the C-terminal intracellular tail.
as §1

NR1/NR2B = target: T5, NR1/NR2B (Rattus norvegicus, UniProt P35439+Q00960); assay: NMDA-induced membrane currents, Xenopus oocytes, Example 7; type: cell-based
T5 construct: expressed in transfected cells; host or cells: Xenopus oocytes injected with mRNA
Protocol: as §2, §3, §4

NR1/NR2D (NR1100) = NR1/NR2D (NR1100) (Rattus norvegicus, UniProt P35439+Q62645); assay: cell-based
Sequence of NR1/NR2D (NR1100) (Q62645 28-1323, other chains not shown): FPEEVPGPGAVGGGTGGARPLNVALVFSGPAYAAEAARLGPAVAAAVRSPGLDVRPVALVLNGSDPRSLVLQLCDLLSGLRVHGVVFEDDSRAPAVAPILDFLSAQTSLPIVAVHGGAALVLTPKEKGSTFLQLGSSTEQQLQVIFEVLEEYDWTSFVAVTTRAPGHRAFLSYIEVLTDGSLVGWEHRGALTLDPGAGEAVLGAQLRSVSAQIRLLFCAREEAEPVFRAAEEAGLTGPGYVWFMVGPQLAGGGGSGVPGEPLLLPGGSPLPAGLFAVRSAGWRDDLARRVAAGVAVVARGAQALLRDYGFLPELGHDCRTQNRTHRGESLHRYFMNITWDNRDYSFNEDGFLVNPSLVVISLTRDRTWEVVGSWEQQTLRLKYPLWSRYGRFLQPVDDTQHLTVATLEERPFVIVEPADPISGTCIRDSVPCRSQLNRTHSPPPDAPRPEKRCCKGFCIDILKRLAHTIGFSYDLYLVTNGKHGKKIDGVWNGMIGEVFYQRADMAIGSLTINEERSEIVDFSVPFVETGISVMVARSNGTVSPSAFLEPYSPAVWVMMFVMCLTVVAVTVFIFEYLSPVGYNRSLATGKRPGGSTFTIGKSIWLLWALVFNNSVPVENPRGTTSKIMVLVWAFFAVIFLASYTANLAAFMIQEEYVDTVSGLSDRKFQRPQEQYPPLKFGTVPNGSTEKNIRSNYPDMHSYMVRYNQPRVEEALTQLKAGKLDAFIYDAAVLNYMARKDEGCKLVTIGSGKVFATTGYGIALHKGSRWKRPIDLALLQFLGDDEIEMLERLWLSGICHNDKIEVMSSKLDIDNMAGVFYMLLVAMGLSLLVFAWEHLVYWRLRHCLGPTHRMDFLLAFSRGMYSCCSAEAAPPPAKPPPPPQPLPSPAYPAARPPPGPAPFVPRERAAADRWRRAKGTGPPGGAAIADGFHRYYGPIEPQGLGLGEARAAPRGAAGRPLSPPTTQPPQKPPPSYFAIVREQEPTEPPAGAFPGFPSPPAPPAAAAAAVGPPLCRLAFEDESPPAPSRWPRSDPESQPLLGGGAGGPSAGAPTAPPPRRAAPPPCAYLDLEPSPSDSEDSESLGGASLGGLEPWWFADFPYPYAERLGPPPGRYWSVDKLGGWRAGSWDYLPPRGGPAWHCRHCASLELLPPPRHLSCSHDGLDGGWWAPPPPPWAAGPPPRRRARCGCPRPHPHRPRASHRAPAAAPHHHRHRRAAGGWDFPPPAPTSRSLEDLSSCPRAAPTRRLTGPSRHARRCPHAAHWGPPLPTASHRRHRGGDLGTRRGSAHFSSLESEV

T4 sequence (Q62645 with tags, fused parts or gaps with the stated changes, other chains not shown): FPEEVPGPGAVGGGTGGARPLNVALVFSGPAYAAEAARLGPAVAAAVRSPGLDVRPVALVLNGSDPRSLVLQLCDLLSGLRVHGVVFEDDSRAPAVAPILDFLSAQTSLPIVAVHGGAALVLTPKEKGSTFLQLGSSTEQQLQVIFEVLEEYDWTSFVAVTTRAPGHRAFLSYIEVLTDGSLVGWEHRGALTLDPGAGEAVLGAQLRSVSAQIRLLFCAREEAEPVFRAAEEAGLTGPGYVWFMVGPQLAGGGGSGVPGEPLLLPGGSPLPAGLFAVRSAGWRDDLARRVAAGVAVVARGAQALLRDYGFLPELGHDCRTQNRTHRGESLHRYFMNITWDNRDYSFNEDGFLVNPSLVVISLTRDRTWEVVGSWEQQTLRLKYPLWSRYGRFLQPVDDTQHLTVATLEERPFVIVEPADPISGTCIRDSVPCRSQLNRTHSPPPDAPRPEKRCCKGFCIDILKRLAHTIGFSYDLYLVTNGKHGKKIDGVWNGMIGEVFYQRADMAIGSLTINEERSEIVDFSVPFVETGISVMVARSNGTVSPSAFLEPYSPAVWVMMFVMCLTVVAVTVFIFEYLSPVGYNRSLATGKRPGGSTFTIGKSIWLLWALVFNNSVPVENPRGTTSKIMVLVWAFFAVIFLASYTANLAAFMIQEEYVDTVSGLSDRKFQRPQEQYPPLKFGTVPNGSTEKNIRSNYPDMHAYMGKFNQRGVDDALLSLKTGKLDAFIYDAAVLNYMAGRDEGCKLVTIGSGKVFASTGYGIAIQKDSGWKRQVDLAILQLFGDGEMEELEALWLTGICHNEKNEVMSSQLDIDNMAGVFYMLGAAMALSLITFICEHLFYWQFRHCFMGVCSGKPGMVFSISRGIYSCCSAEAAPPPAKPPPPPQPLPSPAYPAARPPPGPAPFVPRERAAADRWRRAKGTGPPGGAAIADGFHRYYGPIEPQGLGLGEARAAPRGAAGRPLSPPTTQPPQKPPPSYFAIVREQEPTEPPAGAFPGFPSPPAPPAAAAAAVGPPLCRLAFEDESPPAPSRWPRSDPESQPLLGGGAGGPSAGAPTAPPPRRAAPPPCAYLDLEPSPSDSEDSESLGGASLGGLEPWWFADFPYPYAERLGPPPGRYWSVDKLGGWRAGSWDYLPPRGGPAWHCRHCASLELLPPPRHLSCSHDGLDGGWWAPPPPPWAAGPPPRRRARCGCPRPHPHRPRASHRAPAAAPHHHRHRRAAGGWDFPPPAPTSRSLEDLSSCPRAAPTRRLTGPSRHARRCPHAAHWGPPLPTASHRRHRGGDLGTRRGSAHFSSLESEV
T5 sequence (Q00960 27-1482, other chains not shown): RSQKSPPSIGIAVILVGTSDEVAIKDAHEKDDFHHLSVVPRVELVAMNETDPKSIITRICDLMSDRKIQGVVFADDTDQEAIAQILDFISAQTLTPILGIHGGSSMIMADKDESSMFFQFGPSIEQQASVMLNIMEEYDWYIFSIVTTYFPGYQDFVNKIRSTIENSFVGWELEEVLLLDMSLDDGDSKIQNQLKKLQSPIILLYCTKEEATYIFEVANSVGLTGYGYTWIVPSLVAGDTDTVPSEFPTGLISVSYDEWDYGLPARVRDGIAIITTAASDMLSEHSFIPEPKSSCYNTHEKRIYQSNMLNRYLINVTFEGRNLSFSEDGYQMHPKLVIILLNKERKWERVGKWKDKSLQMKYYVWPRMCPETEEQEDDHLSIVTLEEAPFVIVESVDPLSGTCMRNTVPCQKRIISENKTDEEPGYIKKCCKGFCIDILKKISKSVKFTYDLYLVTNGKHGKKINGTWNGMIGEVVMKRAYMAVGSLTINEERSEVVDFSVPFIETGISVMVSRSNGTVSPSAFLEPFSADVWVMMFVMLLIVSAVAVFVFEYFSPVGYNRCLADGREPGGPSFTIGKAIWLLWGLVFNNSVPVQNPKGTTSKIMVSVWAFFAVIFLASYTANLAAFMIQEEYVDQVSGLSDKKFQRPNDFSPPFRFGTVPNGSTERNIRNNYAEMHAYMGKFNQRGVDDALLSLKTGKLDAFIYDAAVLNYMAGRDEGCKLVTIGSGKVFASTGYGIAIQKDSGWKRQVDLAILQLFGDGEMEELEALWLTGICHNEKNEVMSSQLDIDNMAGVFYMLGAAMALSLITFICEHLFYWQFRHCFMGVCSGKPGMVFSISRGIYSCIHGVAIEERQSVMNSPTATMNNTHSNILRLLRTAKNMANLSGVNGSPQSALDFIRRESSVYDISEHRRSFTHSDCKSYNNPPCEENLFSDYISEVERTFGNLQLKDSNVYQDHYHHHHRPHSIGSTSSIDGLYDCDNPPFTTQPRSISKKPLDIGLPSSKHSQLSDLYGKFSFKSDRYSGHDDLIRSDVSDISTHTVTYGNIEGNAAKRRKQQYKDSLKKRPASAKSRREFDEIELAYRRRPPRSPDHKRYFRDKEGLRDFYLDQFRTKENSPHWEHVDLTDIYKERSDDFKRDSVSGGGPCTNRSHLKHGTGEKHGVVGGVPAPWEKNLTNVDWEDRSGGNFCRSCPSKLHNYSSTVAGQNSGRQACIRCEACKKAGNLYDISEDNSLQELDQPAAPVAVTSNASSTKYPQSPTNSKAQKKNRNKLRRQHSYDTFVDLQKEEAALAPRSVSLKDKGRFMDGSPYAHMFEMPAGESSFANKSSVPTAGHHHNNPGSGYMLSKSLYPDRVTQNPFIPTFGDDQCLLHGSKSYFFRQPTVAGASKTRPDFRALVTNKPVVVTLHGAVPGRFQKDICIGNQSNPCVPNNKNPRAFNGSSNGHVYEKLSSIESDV
T3 sequence (Q62645 28-1323, other chains not shown): as the sequence (Q62645 28-1323, other chains not shown) above
T1 sequence (Q62645 28-1323, other chains not shown): as above

| Compound | inhibition of inward current (NR1011/NR2Dwt) [%] | potentiation of inward current (NR1011/NR2Bwt) [%] | difference in mrc between NR1000/NR2A and NR1100/NR2A (NR1100/NR2A) [fold] | inhibition of NMDA-induced membrane currents (NR1/NR2D; 100 μM PS, 10 μM NMDA, 10 μM glycine) [%] | maximum inhibition (NR1/NR2D; PS 0.5 to 200 μM) [%] | potentiation of inward current [1] | potentiation of membrane current (NR1/NR2B; 100 μM PS, […] μM NMDA, 10 μM glycine) [%] | maximum potentiation (NR1/NR2B; PS 0.5 to 200 μM) [%] | EC50 (NR1/NR2D (NR1100)) [µM] | Emax (NR1/NR2D (NR1100); read-out: 3α5βS Emax (% Change)) [%] |
| --- | --- | --- | --- | --- | --- | --- | --- | --- | --- | --- |
| pregnenolone sulfate [PS] | 45.18±2.62 | 78.36±7.89 | 1.3 | 29±2 | 70±6 | 66.05±2.75% and 66.05±2.76% | 95±6 | 119±9 |  |  |
| CC(=O)[C@H]1CC[C@H]2[C@@H]3CC[C@@H]4C[C@H](OS(=O)(=O)O)CC[C@]4(C)[C@H]3CC[C@]12C [3α5βS, 3α5β-pregnanolone sulfate] |  |  |  |  |  |  |  |  | 14 | -98 ± 7 |
